Data set [1] is described as follows: distribution in the body as function of time after intravenous administration, measured by scinticamera. It counts as in vivo, human. The note with it: for Time of Appearance in Gallbladder / Time of Appearance in Intestine / Blood T 1/2 / Liver T 1/2 / Maximum Liver Accumulation: approximately 0.25 millicurie per injection; for Blood T 1/2: elimination from blood into liver cells; for Liver T 1/2: elimination from liver cells into bile ducts and gallbladder; for Maximum Liver Accumulation: time of maximum accumulation.
Procedure: These compounds were tested intravenously on humans. The total quantity of radioactivity per injection of the respectively injected aqueous test solution was approximately 0.25 millicurie in each instance.
The distribution in the body as function of time after administration was measured by scinticamera in the usual manner.

For data set [2] the following is noted: background statement in words; cited from earlier work.

Where a name gives a salt, the structure may show the parent alone.

`O=C(COCC(=O)Nc1c(I)cc(I)c(C(=O)O)c1I)Nc1c(I)cc(I)c(C(=O)O)c1I` [A, diglycolic acid bis(3-carboxy-2,4,6-triiodoanilide)-131-iodine N-methylglucamine salt]: in data set [1] (humans, intravenous), the “Time of Appearance in Gallbladder” value was 25.5 min, the “Time of Appearance in Intestine” value is 14.6 min, the “Blood T 1/2” value turned out to be 3.22 min and the “Liver T 1/2” value turned out to be 3.19 min. Further, the “Maximum Liver Accumulation” value in data set [1] (humans, intravenous) was determined as 16.5 min. In addition, in data set [1] (humans, intravenous, in words), the “enterohepatic cycle (reabsorption from the intestine into the bloodstream)” value is on record as “absence of an enterohepatic cycle”; the “liver passage (from T 1/2 values)” value is “markedly faster liver passage”; the “times of appearance in the intestine and gallbladder, compared with B and C” value is “markedly shorter than in the comparison substances B and C”. The concomitant gallbladder representation entry in data set [1] (patients having a healthy liver) is given as “a concomitant gallbladder representation is obtained”.

Take `O=C1OC2(c3cc(I)c(O)c(I)c3Oc3c2cc(I)c(O)c3I)c2c(Cl)c(Cl)c(Cl)c(Cl)c21` [B, tetrachlorotetraiodofluorescein-131-iodine sodium salt]: in data set [1] (humans, intravenous), the “Time of Appearance in Gallbladder” value is 45 min, the “Time of Appearance in Intestine” value is 45 min, the “Blood T 1/2” value is 8.14 min and the “Liver T 1/2” value was determined as 10.24 min. In addition, the “Maximum Liver Accumulation” value in data set [1] (humans, intravenous) worked out at 30 min. Moreover, in data set [2], the “elimination from the liver” value is recorded as “after a longer period of time” and the “maximum accumulation in the liver” value is “after a longer period of time”.

The record behind these values is patent US3939204A, “Radioactive functional diagnostic agents” (priority 1972, dated 1976).
